US11155668B2, “Contact-killing, QAC functionalized thermoplastic polyurethane for catheter applications” (THE UNIVERSITY OF AKRON, priority 2017, dated 2021)

Key:
S. epidermidis = experiment: Contact-killing assay (adapted from ISO 22196) on allyl-TPU blade-coated samples modified with Qx-SH; type: cell-based, Staphylococcus epidermidis (ATCC 12228); conditions: n = 2, negative control polypropylene 0.93 (±0.03) × 10^5
Procedure: (§1) To functionalize the allyl-TPU blade-coated samples with Qx-SH reagents, thiol-ene reactions were performed using the same procedure described for rhodamine-SH. Briefly, blade-coated films of allyl-TPU (250 μm thick, 2.0 cm diameter, ca. 110 mg, 20 μmol allyl) were submerged in 2 mL of an Ar purged (30 min) aqueous solution containing Qx-SH (10.0 mM) and LAP (5.0 mM), and allowed to pre-soak for 30 min under Ar. UV-treated samples were irradiated for 30 min (λ=365 nm, I=1.2 mW·cm^−2) while phys. ads. samples were kept in the absence of UV light for 30 min to control for any antimicrobial activity that is contributed by non-covalently attached QAC. Following treatment, the dye/photoinitiator solutions were drawn up and discarded, and the samples were rinsed with 5 mL of DI water (3×) then submerged in 5 mL of DI water. The samples were further rinsed with 10% EtOH (3×) and soaked in 10% EtOH for 15 min (3×), rinsing with 10% EtOH in between each soak.
(§2) For antimicrobial testing, blade-coated samples and catheter tubing of allyl-TPU were sterilized by EtO sterilization using an Anprolene benchtop sterilizer (Anderson Products, Inc., Haw River, N.C.) following the manufacturer's protocol to deliver approximately 0.5 cc·L^−1 of EtO gas over a 12 h sterilization cycle at 35% humidity and room temperature, followed by a 48 h purge under vacuum. The bacterial strains used in this study included Staphylococcus epidermidis (ATCC 12228), Staphylococcus aureus (25923), Escherichia coli (ATCC 25922), Pseudomonas aeruginosa (ATCC 27853), Enterococcus faecalis (ATCC 29212), and methicillin-resistant Staphylococcus aureus (MRSA) (ATCC BAA-41).
(§3) The contact-killing assay was performed on physically adsorbed (phys. ads.), and UV-treated blade-coated samples modified with a series of Qx-SH reagents using a method adapted from ISO 22196. See, International Organization for Standardization. Measurement of antibacterial activity on plastics and other non porous surfaces (ISO 22196:2011), the disclosure of which is incorporated herein by reference in its entirety. Briefly, the samples were inoculated with same day cultures of select bacteria (e.g. E. coli, S. epidermidis) in dilute nutrient media (0.2% tryptic soy broth (TSB) in 1× phosphate buffered saline (PBS)) at approximately 150 colony-forming units (CFU)·mm^−2. Generally, 35 uL of 8.5×10^5 CFU/mL cultures were dispersed across the surface of the sample using sterile polypropylene cover films (area=198 mm^2). Inoculated samples were incubated in a humidified room air incubator (36° C., ca. 80% rel. humidity) for 20 h. Following incubation, surviving cells were recovered from the samples using vigorous agitation (i.e. vortexing for 20 s in PBS). Surviving cells were enumerated via 10-fold series dilution and plating 100 μL onto tryptic soy agar (TSA), incubating overnight and then plate counting CFU. The mean CFU recovered per sample (CFU/sample) were calculated by accounting for dilutions. Internal controls samples of polypropylene and chlorhexidine treated with polypropylene were included in the assay.

MRSA = experiment: as above; type: cell-based; conditions: n = 1, negative control polypropylene 1.51 × 10^5
Procedure: as §1, §2, §3

P. aeruginosa = experiment: 48 h biofilm formation assay in catheter tubing; type: cell-based, Pseudomonas aeruginosa (ATCC 27853)
Procedure: For post-fabrication functionalization of the inner lumen of allyl-TPU catheter tubing with Qx-SH reagents, 0.5 mL of an Ar purged solution containing Qx-SH (10.0 mM) and LAP (5.0 mM) was flowed through 25.0 cm segments of catheter tubing every 7.5 min for the duration of a 30 min pre-soak and 30 min UV treatment (or absence of UV for phys. ads. control). Following treatment, the catheter tubes were rinsed continuously for 30 s with DI water (3×), then rinsed continuously for 30 s with 10% EtOH (3×). All samples were blown dry with N2 and placed under vacuum for 24 h before X-ray photoelectron spectroscopy (XPS) analysis or ethylene oxide (EtO) sterilization.
as §2
Biofilm formation was analyzed using overnight cultures of P. aeruginosa grown in TSB and adjusted to an OD600=0.10. An assembly of catheter tubing was prepared using aseptic techniques, and included COOK™ BEACON™ TIP TORCON NB™ Advantage catheter segments (25.0 cm in length) denoted as “CC” and numbered 1-4 from upstream (1) to downstream (4). The catheter assembly was connected using 18 gauge blunt tip stainless steel needles (˜25 mm in length) sterilized in 100% EtOH. CC segments were located before, after, and in between the untreated, phys. ads., and UV-treated allyl-TPU catheter segments modified with Q8-SH to account for any downstream influence of the experimental catheters. With a peristaltic pump flowing at 1.5 mL·min^−1, fresh bacterial inoculum was continuously streamed through the catheter assembly for 2 h, followed by FAB medium (0.10 mM CaCl2, 0.01 mM Fe-EDTA, 0.15 mM (NH4)2SO4, 0.33 mM Na2HPO4, 0.20 mM KH2PO4, 0.50 mM NaCl, 0.50% (wt/vol) casamino acids, 1.0 mM MgCl2, and 10 mM sodium citrate) for 48 h. Samples were fixed with 50 mL of a 4% paraformaldehyde solution, rinsed with 200 mL of PBS, and submerged in PBS for further testing.
Photographs of the catheter tubing were taken using a camera with a 16-megapixel Sony Exmor RS IMX240 sensor and […] lens. Catheter cross-sections were cut (ca. 2.5 mm in length) from each catheter segment, rinsed thoroughly with DI water, and lyophilized for 24 h for scanning electron microscopy (SEM) analysis. SEM was performed on gold sputter-coated samples using a JEOL-7401 Field Emission Scanning Electron Microscope (JEOL USA, Inc., Peabody, Mass.) at an accelerating voltage of 2.0 kV under 45× and 300× magnification. In addition, lyophilized cross-sections (3.0 mm in length) from randomly selected locations along each catheter segment were placed vertically on a glass slide and imaged under brightfield microscope at 4× magnification. Using Olympus VS-Desktop software, the % biofilm blockage was determined by measuring the inner luminal area of untreated catheters compared to the area of the biofilm on the interior of the contaminated catheters (Equation 1).
[formula] Results are reported as averages with standard deviations (n=3) for each catheter segment.

[1] = UV-treated allyl-TPU catheter, 48 h
[2] = phys. ads. allyl-TPU catheter, 48 h

For `CCCCCCCC[N+](C)(C)CCCCCCCCOC(=O)CCS.[Cl-]` [Q8-SH], the “Mean CFU/Sample Recovered, S.epidermidis” value (S. epidermidis; UV-treated samples) was 0.00 ± 0.00 CFU/Sample, the “Mean CFU/Sample Recovered, S.epidermidis” value (S. epidermidis; phys. ads. samples) was 0.00 ± 0.00 CFU/Sample and the “Mean CFU/Sample Recovered, MRSA” value (MRSA; UV-treated samples) was 0.00 CFU/Sample. The “Mean CFU/Sample Recovered, MRSA” value (MRSA; phys. ads. samples) was 0.00 CFU/Sample, the “biofilm formation compared to Cook catheter, untreated and phys. ads. controls (in words)” value (P. aeruginosa; UV-treated allyl-TPU catheter tubing, brightfield microscopy and SEM) was “more resistant to biofilm formation and less” and the “% biofilm blockage (internal volume occlusion)” value (P. aeruginosa; UV-treated allyl-TPU catheter, inner lumen modified, 48 h, n=3) was “ca. 15%”. For the same molecule, the “reduction of biofilm blockage from CC1” value (P. aeruginosa; [1]) was 85%, the “reduction of biofilm blockage from the untreated control” value (P. aeruginosa; [1]) was 69% and the “reduction of biofilm blockage from CC1” value (P. aeruginosa; [2]) was 77%. For the same molecule, the “reduction of biofilm blockage from the untreated control” value (P. aeruginosa; [2]) was 53%.
